Patent US20240252677A1, “ONE-COMPONENT DELIVERY SYSTEM FOR NUCLEIC ACIDS” (The Trustees of the University of Pennsylvania, priority 2021, published 2024)
Like-named read-outs stand apart in the source and are kept apart here.

Tests used:
[1] = test system: HEK293T cells; test: In vitro Luc-mRNA transfection, luciferase luminescence expression in HEK293T cells; format: cell-based, human; design: unit not given here; settings: n=3
Summary of the method: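 HEK293T cells were transfected with nucleoside-modified firefly luciferase mRNA at 125 ng/well delivered in the test particles. TransIT and MC3-based LNPs at equal mRNA dose served as comparators. After 24 h (18-20 h in some runs) at 37° C the cells were lysed, and luciferase luminescence was read on a luminometer, in triplicate.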

[2] = test system: spleen; test: In vivo mRNA delivery, IVIS imaging of organs: spleen; design: species or system mice; key to Organs with luminescence: spleen: strong: Strong meant the luminescence intensity in that organ was relatively high, compared to other organs; weak: Weak meant the luminescence intensity in that organ was relatively low, compared to other organs; settings: for Organs with luminescence: spleen (weak/strong): Table 14; for Organs with luminescence: spleen: Table 17, mice, IVIS, 4-6 h after injection, intensity relative to other organs
[3] = test system: BALB/c mice; settings: cited from earlier work
[4] = test system: BALB/c mice; test: In vivo mRNA delivery in mice with DNPs, whole-body bioluminescence imaging (IVIS)
[5] = test system: HEK293T cells; settings: Table 16, IAJDs marked a (Zhang et al., J. Am. Chem. Soc. 2021); HEK 293T cells, 125 ng/well, n=3; cited from earlier work
[6] = Table 16, IAJDs marked a (Zhang et al., J. Am. Chem. Soc. 2021); IAJD 4 mg/mL, Luc-mRNA 0.10 mg/mL, acetate buffer 10 mM pH 4.0; cited from earlier work
[7] = HEK293T cells, Luc-mRNA 125 ng/well
[8] = Table 18, symmetric IAJDs, results available in the literature
[9] = Table 20, corresponding symmetric IAJDs (literature per Table 18)
[10] = Table 20, nonsymmetric IAJDs and MC3-Luc-mRNA
[11] = Table 16, HEK 293T cells, 125 ng/well

CCCCCCCCCCCCCCOc1cc(COC(=O)CCCN2CCN(C)CC2)cc(OCCCCCCCCCCCCCC)c1 [IAJD 74, 3,5-Bis(tetradecyloxy)benzyl 4-(4-methylpiperazin-1-yl)butanoate]
Luminescence [1, 7]: 3,926
Organs with luminescence: spleen (weak/strong) ([2]; imaging 5 h after injection): spleen (strong)
In vivo activity (total flux, p/s) [3, 8]: 1.71 × 10^7 p/s
In vivo activity (total flux, p/s) [3, 9]: 1.71 × 10^7 p/s

CCCCCCCCCCCCCCCCOc1cc(COC(=O)CCCN2CCN(C)CC2)cc(OCCCCCCCCCCCCCCCC)c1 [IAJD 75, 3,5-Bis(hexadecyloxy)benzyl 4-(4-methylpiperazin-1-yl)butanoate]
Luminescence [1, 7]: 68,572
Organs with luminescence: spleen (weak/strong) ([2]; imaging 5 h after injection): spleen (strong)
In vivo activity (total flux, p/s) [3, 8]: 3.37 × 10^7 p/s
In vivo activity (total flux, p/s) [3, 9]: 3.37 × 10^7 p/s

CCCCC(CC)COc1cc(COC(=O)CCCN2CCN(C)CC2)cc(OCC(CC)CCCC)c1 (stereo not shown) [IAJD 76, 3,5-Bis((2-ethylhexyl)oxy)benzyl 4-(4-methylpiperazin-1-yl)butanoate]
Luminescence [1, 7]: 17
Organs with luminescence: spleen (weak/strong) ([2]; imaging 5 h after injection): spleen (strong)
In vivo activity (total flux, p/s) [3, 8]: 7.81 × 10^7 p/s

CCCCCCCCCOc1cc(COC(=O)CCCN2CCN(C)CC2)cc(OCCCCCCCCC)c1 [IAJD 77, 3,5-Bis(nonyloxy)benzyl 4-(4-methylpiperazin-1-yl)butanoate]
Luminescence [1, 7]: 129
Organs with luminescence: spleen (weak/strong) ([2]; imaging 5 h after injection): spleen (strong)
In vivo activity (total flux, p/s) [3, 8]: 2.44 × 10^6 p/s

CCCCCCCCCCCCCCCCCCOc1cc(COC(=O)CCCN2CCN(C)CC2)cc(OCCCCCCCCCCC)c1 [IAJD 81, 3-(Octadecyloxy)-5-(undecyloxy)benzyl 4-(4-methylpiperazin-1-yl)butanoate]
Luminescence [1, 7]: 206,161
In vivo activity (total flux, p/s) ([4]; Table 19, nonsymmetric IAJDs): 2.32 × 10^7 p/s
In vivo activity (total flux, p/s) [4, 10]: 2.32 × 10^7 p/s
Organs with luminescence: spleen (weak/strong) ([2]; imaging 6 h after injection): spleen (weak)
Organs with luminescence: spleen [2]: spleen (weak)
Luminescence [5]: 206,161
PDI [6]: 0.287
Size (d, nm) [6]: 111 nm

CCCCCCCCCCCCCCCCOc1cc(COC(=O)CCCN2CCN(C)CC2)cc(OCCCCCCCCCCC)c1 [IAJD 86, 3-(Hexadecyloxy)-5-(undecyloxy)benzyl 4-(4-methylpiperazin-1-yl)butanoate]
Luminescence [1, 7]: 47,066
In vivo activity (total flux, p/s) ([4]; Table 19, nonsymmetric IAJDs): 4.73 × 10^7 p/s
Organs with luminescence: spleen (weak/strong) ([2]; imaging 5 h after injection): spleen (weak)
Organs with luminescence: spleen [2]: spleen (weak)
Luminescence [5]: 47,066
PDI [6]: 0.234
Size (d, nm) [6]: 91 nm

CCCCC(CC)COc1cc(COC(=O)CCCN2CCN(CCO)CC2)cc(OCC(CC)CCCC)c1 (stereo not shown) [IAJD 87, 3,5-Bis((2-ethylhexyl)oxy)benzyl 4-(4-(2-hydroxyethyl)piperazin-1-yl)butanoate]
Luminescence [1, 7]: 33
Organs with luminescence: spleen (weak/strong) ([2]; imaging 6 h after injection): spleen (strong)
In vivo activity (total flux, p/s) [3, 8]: 3.24 × 10^7 p/s
In vivo activity (total flux, p/s) [3, 9]: 3.24 × 10^7 p/s

CCCCCCCCOc1cc(COC(=O)CCCN2CCN(C)CC2)cc(OCCCCCCCC)c1 [IAJD 88, 3,5-Bis(octyloxy)benzyl 4-(4-methylpiperazin-1-yl)butanoate]
Luminescence [1, 7]: 17
Organs with luminescence: spleen (weak/strong) ([2]; imaging 6 h after injection): spleen (strong)
In vivo activity (total flux, p/s) [3, 8]: 2.34 × 10^6 p/s

CCCCCCCCOc1cc(COC(=O)CCCN2CCN(CCO)CC2)cc(OCCCCCCCC)c1 [IAJD 89]
Luminescence [1, 7]: 55
Organs with luminescence: spleen (weak/strong) ([2]; imaging 6 h after injection): spleen (strong)
In vivo activity (total flux, p/s) [3, 8]: 5.92 × 10^7 p/s

CCCCCCCCCCOc1cc(COC(=O)CCCN2CCN(CCO)CC2)cc(OCCCCCCCCCC)c1 [IAJD 91, 3,5-Bis(decyloxy)benzyl 4-(4-(2-hydroxyethyl)piperazin-1-yl)butanoate]
Luminescence [1, 7]: 65,255
Organs with luminescence: spleen (weak/strong) ([2]; imaging 6 h after injection): spleen (strong)
In vivo activity (total flux, p/s) [3, 8]: 9.94 × 10^6 p/s

CCCCCCCCCCCCCCCCCCOc1cc(COC(=O)CCCN2CCN(C)CC2)cc(OCCCCCCCCCCCCCCCCCC)c1 [IAJD 98, 3,5-Bis(octadecyloxy)benzyl 4-(4-methylpiperazin-1-yl)butanoate]
Luminescence [1, 7]: 22,209
Organs with luminescence: spleen (weak/strong) ([2]; imaging 6 h after injection): spleen (strong)
In vivo activity (total flux, p/s) [3, 8]: 2.06 × 10^6 p/s
In vivo activity (total flux, p/s) [3, 9]: 2.06 × 10^6 p/s

CCCCCCCCCCCCCCCCCCOc1cc(COC(=O)CCCN2CCN(CCO)CC2)cc(OCCCCCCCCCCCCCCCCCC)c1 [IAJD 99, 3,5-Bis(octadecyloxy)benzyl 4-(4-(2-hydroxyethyl)piperazin-1-yl)butanoate]
Luminescence [1, 7]: 87,433
Organs with luminescence: spleen (weak/strong) ([2]; imaging 6 h after injection): spleen (strong)
In vivo activity (total flux, p/s) [3, 8]: 4.49 × 10^6 p/s
In vivo activity (total flux, p/s) [3, 9]: 4.49 × 10^6 p/s

CCCCCCCCCCCCCOc1cc(COC(=O)CCCN2CCN(CCO)CC2)cc(OCC(CC)CCCC)c1 (stereo not shown) [IAJD 162, 3-((2-Ethylhexyl)oxy)-5-(tridecyloxy)benzyl 4-(4-(2-hydroxyethyl)piperazin-1-yl)butanoate]
Luminescence [1, 11]: 222,235
In vivo activity (total flux, p/s) ([4]; Table 19, nonsymmetric IAJDs): 2.03 × 10^8 p/s
In vivo activity (total flux, p/s) [4, 10]: 2.03 × 10^8 p/s
Organs with luminescence: spleen [2]: spleen (strong)

CCCCCCCCCCCCCCOc1cc(COC(=O)CCCN2CCN(C)CC2)cc(OCCCCCCCCCCCCC)c1 [IAJD 171, 3-(Tetradecyloxy)-5-(tridecyloxy)benzyl 4-(4-methylpiperazin-1-yl)butanoate]
Luminescence [1, 11]: 1,436
In vivo activity (total flux, p/s) ([4]; Table 19, nonsymmetric IAJDs): 7.68 × 10^7 p/s
In vivo activity (total flux, p/s) [4, 10]: 7.68 × 10^7 p/s
Organs with luminescence: spleen [2]: spleen (strong)

CCCCCCCCCCCCCCOc1cc(COC(=O)CCCN2CCN(CCO)CC2)cc(OCCCCCCCCCCCCC)c1 [IAJD 172, 3-(Tetradecyloxy)-5-(tridecyloxy)benzyl 4-(4-(2-hydroxyethyl)piperazin-1-yl)butanoate]
Luminescence [1, 11]: 166,377
In vivo activity (total flux, p/s) ([4]; Table 19, nonsymmetric IAJDs): 6.82 × 10^7 p/s
Organs with luminescence: spleen [2]: spleen (strong)

CCCCCCCCCCCCCCCCOc1cc(COC(=O)CCCN2CCN(C)CC2)cc(OCCCCCCCCCCCCC)c1 [IAJD 173, 3-(Hexadecyloxy)-5-(tridecyloxy)benzyl 4-(4-methylpiperazin-1-yl)butanoate]
Luminescence [1, 11]: 2,302
In vivo activity (total flux, p/s) ([4]; Table 19, nonsymmetric IAJDs): 1.23 × 10^8 p/s
In vivo activity (total flux, p/s) [4, 10]: 1.23 × 10^8 p/s
Organs with luminescence: spleen [2]: spleen (weak)

CCCCCCCCCCCCCCCCCCOc1cc(COC(=O)CCCN2CCN(C)CC2)cc(OCCCCCCCCCCCCC)c1 [IAJD 177, 3-(Octadecyloxy)-5-(tridecyloxy)benzyl 4-(4-methylpiperazin-1-yl)butanoate]
Luminescence [1, 11]: 4,343
In vivo activity (total flux, p/s) ([4]; Table 19, nonsymmetric IAJDs): 9.18 × 10^7 p/s
In vivo activity (total flux, p/s) [4, 10]: 9.18 × 10^7 p/s
Organs with luminescence: spleen [2]: spleen (strong)

CCCCCCCCCCCCCCCCCCOc1cc(COC(=O)CCCN2CCN(CCO)CC2)cc(OCCCCCCCCCCCCC)c1 [IAJD 178, 3-(Octadecyloxy)-5-(tridecyloxy)benzyl 4-(4-(2-hydroxyethyl)piperazin-1-yl)butanoate]
Luminescence [1, 11]: 235,419
In vivo activity (total flux, p/s) ([4]; Table 19, nonsymmetric IAJDs): 4.05 × 10^8 p/s
In vivo activity (total flux, p/s) [4, 10]: 4.05 × 10^8 p/s
total flux luminescence ([4]; mice, in vivo Luc-mRNA transfection): 4.05×10^8 p/s
in vivo activity, times higher than symmetric IAJD with the same headgroup ([4]; nonsymmetric vs symmetric alkyl chains (178 vs 99 (18/18))): 90.2 times
in vivo activity, times lower than of MC3 ([4]; total flux luminescence vs MC3): 4.2 times
Organs with luminescence: spleen [2]: spleen (strong)
